Test results reported in patent US20190105389A1, “ADJUVANT SYSTEM FOR ORAL VACCINE ADMINISTRATION” (Vaxform LLC, priority 2012, published 2019).

Tests used:
[1] = Linkage (adsorption) of CTL receptor agonist to aluminum adjuvant (FIG. 2); type: physicochemical; details: aluminum oxyhydroxide
Description: However, monosaccharides can be modified by a chemical group including but not limited to fluoride, phosphate, sulfate, or carbonate group which permits a ligand exchange linkage of the molecule to the aluminum-containing adjuvant. Method for modifying saccharides by addition of fluoride, phosphate, sulfate, or carbonate groups is well known in the art (Cantos, et al. Biochem. J. (1993) 288: 155-160; Carbohydrate Chemistry, Royal Society of Chemistry, Ed. RD Guthrie (1968)). This is illustrated in FIG. 2 utilizing mannose as the CTL receptor agonist and aluminum oxyhydroxide. […] However, addition of a phosphate group at the 1 position of mannose (M1P) results in approximately 100% linkage of the CTL agonist to the aluminum adjuvant.
Another method to the increased avidity of the saccharide for the aluminum adjuvant particle is polymerization. For instance the avidity of the saccharide for the aluminum adjuvant particle may be increased by increasing the size of the saccharide by polymerization to produce a polysaccharide. The increase avidity for the aluminum adjuvant is due to the larger number of interactions of a polysaccharide as compared to a monosaccharide to allow for the stable linkage of the polysaccharide agonist to the aluminum adjuvant particle. […]

[2] = Stability of CTL agonist linkage to aluminum particle on exposure to phosphate (FIG. 3A, 3B); type: physicochemical; details: exposed to 50 mM phosphate pH 7.4 for 30 minutes in the absence of antigen
Description: It is important to maintain the stability of the CTL agonist linkage to the aluminum particle upon exposure to body fluid following administration. Components of interstitial fluid such as phosphate, citrate, and protein have the potential to remove the linkage of the CTL agonist with aluminum-containing adjuvants. The resulting soluble CTL agonist may adversely impact the immune response. FIG. 3A illustrates that M1P as well as mannan maintain approximately 100% linkage with aluminum oxyhydroxide when exposed to 50 mM phosphate pH 7.4 for 30 minutes in the absence of antigen.

Compound	Linkage of the CTL agonist to the aluminum adjuvant [1]	Linkage with aluminum oxyhydroxide maintained [2]
O=P(O)(O)OC1O[C@H](CO)[C@@H](O)[C@H](O)[C@@H]1O (stereo partly shown) [Formulation M1P, mannose-1-phosphate]	approximately 100%	approximately 100%
mannan	approximately 100%	approximately 100%
